Test results reported in publication PMC5766630, “Non-estrogenic Xanthohumol Derivatives Mitigate Insulin Resistance and Cognitive Impairment in High-Fat Diet-induced Obese Mice” (Scientific Reports, 2018).

Tests used:
[1] = test system: C2C12 skeletal muscle myoblasts; assay: MTT cell viability assay, C2C12; type: cell-based, mouse; conditions: 1 h exposure, up to 50 μM
Experimental: (§1) For cell viability experiments using the MTT assay, mouse C2C12 skeletal muscle myoblasts (ATCC; Manassas, VA, USA) and the human hepatocyte cell line, HepG2 (ATCC; Manassas, VA, USA), were plated in 96-well plates at a density of 4,000 to 10,000 cells per well in 200 μL of DMEM medium supplemented with 10% FBS, 1% glutamine, 1 mM of sodium pyruvate, 100 units/mL penicillin, and 100 μg/mL streptomycin. After incubating 48 h, the medium was removed and the cells were treated with fresh solutions of various concentrations of XN, DXN or TXN in phenol red-free DMEM plus supplements. The final concentrations of XN, DXN, TXN were 1, 2, 5, 8, 10, 25, or 50 μM, in quadruplicate wells. The plates were then incubated for 1 h (for C2C12) or 24 h for HepG2. After removing the medium, the cells were incubated for 2 h with a 0.5 mg/mL solution of MTT in phenol red-free culture medium. After removing the medium and adding a solution of acidified isopropanol to each well, the absorbance of each well was measured at 570 nm by using a spectrometer (SpectraMax 190, Molecular Devices, Sunnyvale, CA, USA). Cell viability of compound-treated cells was calculated as % absorbance of vehicle-treated control cells (Supplementary Fig. S1a and S1b).

[2] = test system: progesterone receptor (PGR) expression in MCF-7 cells; assay: Progesterone receptor (PGR) gene expression in MCF-7 cells, real-time PCR; type: cell-based, human; conditions: 20 h; estradiol 1 and 10 nM; 8-PN, XN, DXN, TXN 0.2, 1 and 5 μM; vs 0.1% ethanol
Experimental: MCF-7 cells (American Type Culture Collection, Manassas, VA, USA) were cultured in DMEM (Corning Life Sciences, Tewksbury, MA, USA) supplemented with 10% fetal bovine serum (Corning Life Sciences) and 100 μg/ml penicillin/streptomycin (Invitrogen, Carlsbad, CA, USA). For estrogen-free experiments, cells were seeded in phenol-free DMEM (Gibco/Life Technologies, Grand Island, NY, USA) plus 10% charcoal-dextran-treated FBS (Corning Life Sciences) at 5 × 10^5 cells/well of a 6-well plate. […] Total RNA was isolated using TRIzol (Invitrogen) and converted into cDNA using iScript (Bio-Rad, Hercules, CA, USA). Real-time PCR was performed in triplicate on a CFX-96 (Bio-Rad) using primer-probe assays (IDT Technologies, Coralville, IA, USA) and SsoAdvanced Universal Probes Supermix (Bio-Rad) to quantify progesterone receptor (PGR) and GAPDH levels. The ratio of PGR to GAPDH was calculated as 2^−ΔCt PGR/2^−ΔCt GAPDH. Data were analyzed using a one-way ANOVA (p < 0.05 was considered statistically significant) and a post-hoc Tukey’s multiple comparison test. Induction of the progesterone receptor in MCF-7 cells is one of the indices of estrogenicity of flavonoids such as 8-PN[94].

[3] = test system: C57BL/6J mice fed a high-fat diet; assay: Glucose tolerance test; type: in vivo, mouse; conditions: 30 mg/kg/day, 6 h fast, glucose 2 g/kg i.p., n = 5; for Glucose tolerance test AUC, decrease compared with control, 4 weeks: 4 weeks of feeding; for Glucose tolerance test AUC, decrease compared with control, 11 weeks: 11 weeks of feeding
Experimental: Glucose tolerance tests were conducted after 4 and 11 weeks of feeding the experimental diets. Five mice from each treatment group were used in each glucose tolerance assay. Mice were fasted for 6 h prior to baseline blood glucose testing. Blood was collected from the mice by tail puncture, and glucose measurements were taken using a One Touch UltraMini glucometer (LifeScan, Inc., Milpitas, CA, USA). Mice were weighed and then given an i.p. injection of glucose equal to 2 g/kg body weight. Glucose readings were taken at 0 minutes (prior to glucose injection), and at 15 min, 30 min, 1 h, and 2 h after glucose injection.
Body weight, food intake, and metabolic measurements: data were analyzed using a one-way ANOVA in PROC GLM for single measures within animals (i.e., liver, plasma, and muscle metabolic measures) and a repeated-measures-in-time design ANOVA in PROC MIXED for repeated measures within animals (i.e., body weight, feed intake, and feed efficiency). The area-under-the-curve (AUC) for the glucose tolerance tests were calculated using the trapezoidal rule. Before statistical analysis, data were examined for variance homogeneity and normality. To achieve normality, liver, plasma, and muscle XN data and plasma insulin data were natural log-transformed. For statistical comparisons, the control group was compared with each XN metabolite group.

[4] = molecular target: T1, full-length purified human estrogen receptor ERβ (Homo sapiens, UniProt Q92731); assay: ERβ competitive radiometric binding assay; conditions: RBA = IC50[estradiol]/IC50[compound] × 100, estradiol = 100; 2 nM [3H]-estradiol tracer, 18–24 h at 0 °C
T1 construct: full-length purified human estrogen receptors ERα and ERβ
Experimental: . The receptors and ligands were incubated for 18–24 h at 0 °C and then the receptor–ligand complexes separated using hydroxyapatite (BioRad, Hercules, CA, USA). […]

[5] = test system: HepG2 cells; assay: MTT cell viability assay, HepG2; type: cell-based, human; conditions: 24 h exposure, vs vehicle-treated control cells
Experimental: as §1

[6] = test system: liver AMPK (pAMPKα/total AMPKα); assay: AMPK activation in liver by Western blot; type: in vivo, mouse; conditions: HFD mice, 30 mg/kg/day, 13 weeks, vs control
Experimental: Approximately 150 mg of frozen liver and muscle tissues were homogenized in tubes containing RIPA buffer with protease and phosphatase inhibitors plus ceramic beads (1.4 mm Ceramic, Bulk Beads, Fisher Scientific, Pittsburgh, PA, USA) using a Precellys 24 (PEQLAB Biotechnology GmbH, Germany). Liver tissue was homogenized for 1 × 30 sec at 6,500 rpm whereas muscle was homogenized for 3 × 30 sec at 6,500 rpm with 20 sec intervals. The homogenates were centrifuged at 15,700 × g for 10 minutes and aliquots (50 µg of protein) of the supernatant (lysate) were separated by SDS-PAGE using 4–15% MP TGX Gels (Bio-Rad # 4561083) and blotted onto nitrocellulose membranes. Membranes were blocked with 5% nonfat milk for 2 h and incubated with antibodies against pAMPK (Phospho-AMPKα (Thr172) Antibody, cat. no. #2531 Cell Signaling Technology, Danvers, MA, USA), AMPK (AMPKα Antibody, cat. no. #2532 Cell Signaling Technology, Danvers, MA, USA), or β-actin (Santa Cruz Biotechnology) for 1 h or overnight. After a second reaction with secondary antibodies (horseradish peroxidase-conjugated IgG goat antirabbit or goat antimouse antibodies), the protein bands on the nitrocellulose membranes were visualized by enhanced chemiluminescence substrate on a Biorad ChemiDocTM MP Imaging System (BioRad Laboratories Inc, Hercules, CA, USA). Band intensities were quantified by densitometry using Image J software.

T1 sequence (Q92731 whole entry): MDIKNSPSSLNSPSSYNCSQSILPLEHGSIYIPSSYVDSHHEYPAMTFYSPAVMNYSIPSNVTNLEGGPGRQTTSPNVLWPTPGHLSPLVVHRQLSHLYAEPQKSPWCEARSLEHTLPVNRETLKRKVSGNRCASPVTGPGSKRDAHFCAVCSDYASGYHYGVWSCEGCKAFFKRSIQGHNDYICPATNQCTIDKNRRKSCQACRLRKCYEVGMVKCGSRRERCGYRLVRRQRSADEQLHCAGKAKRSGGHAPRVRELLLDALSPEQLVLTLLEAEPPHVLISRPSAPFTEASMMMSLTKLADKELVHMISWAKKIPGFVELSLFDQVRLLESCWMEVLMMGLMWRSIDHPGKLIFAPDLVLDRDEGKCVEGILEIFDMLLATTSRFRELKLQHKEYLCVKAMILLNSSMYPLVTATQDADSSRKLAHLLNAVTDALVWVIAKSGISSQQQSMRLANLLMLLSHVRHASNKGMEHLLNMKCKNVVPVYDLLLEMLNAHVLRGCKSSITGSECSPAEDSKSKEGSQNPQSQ

Row | Compound | C2C12 cell viability (MTT) [1] | induction of PGR expression [2] | Glucose tolerance test AUC, decrease compared with control, 4 weeks [3] [%] | Glucose tolerance test AUC, decrease compared with control, 11 weeks [3] [%] | RBA ERβ (relative binding affinity) [4] | HepG2 cell viability (MTT), 1–25 µM [5] | Increase of liver AMPK activation (phosphorylated AMPKα/total AMPKα) [6]
1 | COc1cc(O)c(CC=C(C)C)c(O)c1C(=O)/C=C/c1ccc(O)cc1 [XN, 3′-[3,3-dimethylallyl]-2′,4′,4-trihydroxy-6′-methoxychalcone] | did not significantly affect cell viability | do not induce | 43 | 12 | 0.003 ± 0.001 | did not alter cell viability | 24%
2 | COc1cc(O)c(CC=C(C)C)c(O)c1C(=O)CCc1ccc(O)cc1 [DXN, α,β-Dihydroxanthohumol] | did not significantly affect cell viability | do not induce | 46 | 35 | 0.009 ± 0.002 | did not alter cell viability | did not cause a significant activation
3 | COc1cc(O)c(CCC(C)C)c(O)c1C(=O)CCc1ccc(O)cc1 [TXN, tetrahydroxanthohumol] | did not significantly affect cell viability | do not induce | 61 | 45 | 0.009 ± 0.002 | did not alter cell viability | did not cause a significant activation
